In publication PMC8762250, “Identification of Novel Chemical Scaffolds that Inhibit the Growth of Mycobacterium tuberculosis in Macrophages” (Frontiers in Pharmacology, 2022):
Several values for one entry are separate records, joined by “and”; a condition that tells them apart may be missing. Equal values may be shown once. Read-outs that look alike come from different tables or passages of the source. Marks after values point to notes of the source that are not given here.

Assays:
[1] = system: M. tuberculosis; experiment: High content assay of intracellular M. tuberculosis growth in infected RAW264.7 macrophages; assay type: cell-based, Mycobacterium tuberculosis H37Rv-LP; conditions: Mycobacterium tuberculosis, RAW264.7, 72 h, M. tuberculosis in RAW264.7 cells, MOI 1, 72 h; read-out: Intracellular activity Anti-tubercular activity IC50
Experimental: Compounds were obtained in 384-well plates as 10 mM DMSO stock solutions and tested as described ([Manning et al., 2017]). Briefly, assay plates were prepared in clear bottom, black 384-well plates with 30 μl cRPMI and 0.6 μl compound in columns 3–22 (final concentration of 10 μM compound, 1% DMSO). […] INH and STA were also included in dose response on each plate. RAW264.7 cells were infected with M. tuberculosis DREAM8 as described ([Manning et al., 2017]) at an MOI of 1 for 24 h and extracellular bacteria removed by washing. Cells were recovered using Accumax, harvested, washed and resuspended in serum-free RPMI; 30 μl of infected cells were dispensed into each well at 3,300 cells/well. Plates were incubated for 72 h, 10 μl of 5X SYBR Green I was added and plates were imaged with an ImageXpress Micro High Content Screening System (Molecular Devices) using a ×4 objective and FITC and Texas Red channels. MetaXpress was used to analyze images. The integrated intensity of M. tuberculosis or macrophages was calculated for each well. Growth inhibition was calculated for each test well by normalizing to the average integrated intensity of the DMSO control wells. IC50 was calculated as the compound concentration required to reduce bacterial growth by 50%. TC50 was calculated as the compound concentration required to reduce macrophage viability by 50%.

[2] = system: RAW264.7 cells; experiment: Macrophage viability in the same high content assay; conditions: infected RAW264.7 macrophages, 72 h
[3] = system: HepG2 cells; experiment: HepG2 cytotoxicity (CellTiter-Glo, 72 h); assay type: cell-based, human; conditions: for HepG2 cytotoxicity TC50 Galactose / HepG2 cytotoxicity TC50 Glucose: 72 h
Experimental: (§1) Cytotoxicity against HepG2 cells was measured after 72 h. Cells were seeded in 384-well plates at 1,800 cells per well. Compounds were added as a 10-point three-fold serial dilution after 24 h (final assay concentration of 1% DMSO). CellTiter-Glo® reagent (Promega) was added and relative luminescence units (RLU) measured. Data were normalized to the DMSO controls. Curves were fitted using the Levenberg–Marquardt algorithm; TC50 was calculated as the compound concentration required to reduce cell viability by 50%.
(§2) We further evaluated cytotoxicity using the HepG2 cell line cultured with either glucose or galactose in the medium (Table 2). HepG2 cells cultured with galactose rely on mitochondrial oxidative phosphorylation rather than glycolysis which increases their susceptibility to mitochondrial toxicants allowing us to identify compounds with mitochondrial toxicity ([Kamalian et al., 2015]).

[4] = HepG2 cytotoxicity (CellTiter-Glo, 72 h); assay type: cell-based, human; conditions: human
Experimental: as §1, §2

[5] = system: M. tuberculosis; experiment: Minimum inhibitory concentration in liquid medium (axenic culture); assay type: cell-based, Mycobacterium tuberculosis; conditions: Mycobacterium tuberculosis, 120 h; for IC50: read-out: Anti-tubercular activity in axenic culture IC50; for IC90: read-out: Anti-tubercular activity in axenic culture IC90

Row | Compound | IC50 [1] [µM] | Intracellular activity Cytotoxicity TC50 [2] | ratio of TC50glu/TC50gal ([3]; HepG2, glucose vs galactose) | HepG2 cytotoxicity TC50 Galactose ([3]; human) | HepG2 cytotoxicity TC50 Glucose ([3]; human) | IC50 at 72 h ([4]; HepG2 cytotoxicity IC50 Galactose) [µM] | IC50 at 72 h ([4]; HepG2 cytotoxicity IC50 Glucose) [µM] | IC50 ([5]; extracellular, 5 days, OD590) [µM] | IC90 ([5]; extracellular, 5 days, OD590) [µM] | HepG2 cytotoxicity TC50 Galactose ([3]; galactose medium) | HepG2 cytotoxicity TC50 Glucose ([3]; glucose medium) | IC50 [5] [µM] | IC90 [5] [µM]
1 | NNC(=O)c1ccncc1 [INH, isoniazid, reference compound] | 0.23 ± 0.08 | – | – | – | – | – | – | – | – | – | – | – | –
2 | COc1c(Cl)ccc(Cl)c1C(=O)Nc1sc2c(c1C(N)=O)CCCC2 [TPN-0073571] | – | 15 ± 5 µM and 15 ± 5.0 ^b µM | ~4 | 26 ± 5.0 ^b µM | >100 ^b µM | 26 ± 5 | > 100 | – | – | – | – | – | –
3 | CCOC(=O)c1sc(NC(=O)Cc2c(F)cccc2Cl)nc1C [TPN-0089695] | 4.7 ± 1.2 | 45 ± 17 ^b µM | – | >100 ^e µM | >100 ^d µM | – | – | 19 | > 20 | – | – | – | –
4 | Cn1nc(C2CC2)cc1C(=O)Nc1ccc(I)cc1 [TPN-0089788] | 2.5 ± 0.57 | >100e µM | – | 30 ± 12 ^e µM | 52 ± 18 ^e µM | – | – | > 20 | > 20 | – | – | – | –
5 | Clc1ccc(Nc2nc(-c3cccs3)cs2)cc1 [TPN-0095025] | 4.4 ± 1.7 | 26 ± 7.1 ^c µM | – | 28 ± 1.5 ^b µM | 35 ± 1.0 ^a µM | – | – | > 20 | > 20 | – | – | – | –
6 | Clc1ccc(C2C=C(c3ccc(Br)cc3)Nc3ncnn32)cc1 (centres unmarked) [TPN-0095026] | – | 19 ± 12 ^b µM | – | 18 ± 5 ^b µM | 19 ± 3.5 ^b µM | – | – | 19 ± 1 | > 20 | – | – | – | –
7 | COc1ccc(CNC(=O)c2c(C)nc3ccccn23)cc1 [TPN-0095027] | 0.1 ± 0.01 | 72 ± 16 ^d µM | – | 22 ± 2.2 ^c µM | 76 ± 12 ^c µM | – | – | 0.17 ± 0.02 | 0.6 ± 0.2 | – | – | – | –
8 | Cc1ccc(Nc2nc(C(N)=O)c(N)s2)cc1 [TPN-0095028] | 4.4 ± 1.3 | 54 ± 20 ^b µM | – | 62 ± 6.2 ^c µM | 54 ± 9.4 ^c µM | – | – | > 20 | > 20 | – | – | – | –
9 | COc1ccc(C2Oc3ccc(Cl)cc3C3=C2C(c2ccc(OC)cc2)n2ncnc2N3)cc1 (centres unmarked) [TPN-0095029] | > 50 | >50 ^b µM | – | >50 ^b µM | >50 ^b µM | – | – | > 10 | > 10 | – | – | – | –
10 | Clc1c(-c2ccccc2)nc2ccccn12 [TPN-0095030] | 6.9 ± 1.9 | >100 ^b µM | – | >100 ^b µM | >100 ^b µM | – | – | > 20 | > 20 | – | – | – | –
11 | COc1ccc(OCCNC(=O)c2cc([N+](=O)[O-])cc([N+](=O)[O-])c2)cc1 [TPN-0095031] | 0.036 ± 0.007 | 40 ± 25 ^e µM | – | – | – | – | – | – | – | 52 ± 0.47 ^c µM | 57 ± 6.2 ^c µM | 0.2 ± 0.07 | 0.4 ± 0.14
12 | Cc1ccc(Nc2nc(-c3ccc(Cl)cc3)cs2)cc1Cl [TPN-0095032] | 3.5 ± 0.83 | 9.9 ± 0.98 ^c µM | – | 19 ± 0.5 ^b µM | 23 ± 1.5 ^b µM | – | – | > 20 | > 20 | – | – | – | –
13 | O=c1c(/C=N/Cc2cccnc2)c(NCc2cccnc2)nc2ccccn12 [TPN-0095033] | 3.4 ± 2.6 | >100 ^c µM | – | >100 ^c µM | >100 ^c µM | – | – | > 20 | > 20 | – | – | – | –
14 | O=C(c1ccc(Cl)c(Cl)c1)N1CCN(c2ccc([N+](=O)[O-])c3cccnc23)CC1 [TPN-0095034] | 8.4 ± 2.3 | >100 ^d µM | – | >100 ^c µM | >100 ^c µM | – | – | > 20 | > 20 | – | – | – | –
15 | O=C(c1c(F)cccc1F)N1CCN(c2cc(N3CCCCCC3)c(F)cc2[N+](=O)[O-])CC1 [TPN-0095035] | 1 ± 0.02 | >50 ^c µM | – | 21 ± 2.0 ^b µM | 27 ± 0 ^b µM | – | – | 9.6 ± 0.1 | > 10 | – | – | – | –
16 | O=C(CN(C1=NCCCS1)c1ccccc1)c1ccc(Cl)c(Cl)c1 [TPN-0095036] | 3.5 ± 0.97 | 27 ± 2.8 ^c µM | – | 20 ± 0.47 ^c µM | 21 ± 3.4 ^c µM | – | – | > 20 | > 20 | – | – | – | –
17 | Cc1ccc(NC(=O)CCN2CCN(c3ccc(Cl)cc3)CC2)cc1 [TPN-0095037] | 2 ± 0.53 | 54 ± 26 ^c µM | – | 56 ± 4 ^b µM | 84 ± 2.5 ^b µM | – | – | > 20 | > 20 | – | – | – | –
18 | Brc1c(-c2ccccc2)nc2ccccn12 [TPN-0095038] | 2.5 | 72 ± 15 ^b µM | – | >100 ^c µM | >100 ^b µM | – | – | 9.2 ± 1 | > 20 | – | – | – | –
19 | Fc1ccc(C2CC(c3ccc(Cl)cc3Cl)n3ncnc3N2)cc1 (centres unmarked) [TPN-0095039] | 2.1 ± 0.74 | 24 ± 6.1 ^c µM | – | 30 ± 3.2 ^d µM | 29 ± 7.7 ^e µM | – | – | 14 ± 2.1 | 18 ± 1.4 | – | – | – | –
20 | CCOC(=O)c1nnn(-c2nc(N3CCCC3)nc(N3CCCC3)n2)c1-c1ccccc1 [TPN-0095040] | – | 31 ± 18 ^b µM | – | >50 ^c µM | >50 ^c µM | – | – | > 10 | > 10 | – | – | – | –
21 | COc1ccc(C(=O)c2sc(NCc3ccccc3)nc2N)cc1 [TPN-0095041] | 3.6 ± 0.5 | 13 ± 5.5 ^c µM | – | 24 ± 0.5 ^b µM | 52 ± 5.5 ^b µM | – | – | 14 ± 1 | > 20 | – | – | – | –
22 | O=C(CN1CCC(Cc2ccccc2)CC1)Nc1ccc(Cl)cn1 [TPN-0095042] | 3.7 ± 0.62 | 21 ± 9.3 ^c µM | – | 19 ± 1.0 ^b µM | 26 ± 3.0 ^b µM | – | – | > 10 | > 10 | – | – | – | –
